Laboratory results as given in ChEMBL document CHEMBL1130654, “New phthalimide derivatives with potent analgesic activity: II” (1998).

Tests used:
Type in all cases: functional
Mus musculus [1] = assay: Inhibition of acetic acid induced writhing in mice at dose of 3.12 mg/kg
Mus musculus [2] = assay: Inhibition of acetic acid induced writhing in mice at dose of 6.25 mg/kg
Mus musculus [3] = assay: Inhibition of acetic acid induced writhing in mice at dose of 1.56 mg/kg
Mus musculus [4] = assay: Inhibition of acetic acid induced writhing in mice at dose of 12.5 mg/kg
Mus musculus [5] = assay: Inhibition of acetic acid induced writhing in mice at dose of 25.0 mg/kg
Mus musculus [6] = assay: Compound was tested for hyperalgesia in mice induced by formalin expressed as time of licking at late phase(up to 30 min) at dose 25 mg/kg
Mus musculus [7] = assay: Compound was tested for hyperalgesia in mice induced by formalin expressed as time of licking at initial phase(up to 5 min)at dose 25 mg/kg
Mus musculus [8] = assay: Inhibition of acetic acid induced writhing in mice at dose of 25 mg/kg
Mus musculus [9] = assay: Inhibition of acetic acid induced writhing in mice at dose of 100 mg/kg
Mus musculus [10] = assay: Inhibition of acetic acid induced writhing in mice at dose of 50 mg/kg
Mus musculus [11] = assay: Compound was tested for hyperalgesia in mice induced by formalin expressed as time of licking at initial phase(up to 5 min) at 400 mg/kg
Mus musculus [12] = assay: Compound was tested for hyperalgesia in mice induced by formalin expressed as time of licking at late phase(up to 30 min) at 400 mg/kg
Mus musculus [13] = assay: Inhibition of acetic acid induced writhing in mice at dose of 200 mg/kg
Mus musculus [14] = assay: Compound was tested for hyperalgesia in mice induced by formalin expressed as time of licking at initial phase(up to 5 min) at dose 10 mg/kg
Mus musculus [15] = assay: Compound was tested for hyperalgesia in mice induced by formalin expressed as time of licking at late phase(up to 30 min) at dose 10 mg/kg

| Compound | ID50 (Mus musculus [1]) | inhibition in vivo at 3.12 mg/kg (Mus musculus [1]) | inhibition in vivo at 6.25 mg/kg (Mus musculus [2]) | inhibition in vivo at 1.56 mg/kg (Mus musculus [3]) | inhibition in vivo at 12.5 mg/kg (Mus musculus [4]) | other results |
| --- | --- | --- | --- | --- | --- | --- |
| Cc1cccc(-c2noc(CN3C(=O)c4ccccc4C3=O)n2)c1 | 2.9 | 67.1% | 79.2% | 25.5% | – | – |
| COc1ccc(-c2noc(CN3C(=O)c4ccccc4C3=O)n2)cc1 | – | 20.7% | 41.9% | – | 53.3% | ID50 (Mus musculus [4]): 14.9; inhibition in vivo at 25 mg/kg (Mus musculus [5]): 62.6% |
| O=C1c2ccccc2C(=O)N1Cc1nc(-c2ccccc2)no1 | 2.2 | 67.1% | 73.8% | 38.9% | – | Time of licking (Mus musculus [6]): 143 s; Time of licking (Mus musculus [7]): 84 s |
| O=C1c2ccccc2C(=O)N1Cc1nc(-c2ccc([N+](=O)[O-])cc2)no1 | 4.1 | 47.4% | 62.9% | 29.8% | – | – |
| O=C1c2ccccc2C(=O)N1Cc1nc(-c2ccc(Cl)cc2)no1 | – | – | 16.3% | – | 35.1% | ID50 (Mus musculus [4]): 20.3; inhibition in vivo at 25 mg/kg (Mus musculus [8]): 59.6% |
| Cc1ccccc1-c1noc(CN2C(=O)c3ccccc3C2=O)n1 | 3.1 | 76.5% | 80.5% | 12.1% | – | – |
| Cc1ccc(-c2noc(CN3C(=O)c4ccccc4C3=O)n2)cc1 | – | 16.1% | 62.4% | – | 72.5% | ID50 (Mus musculus [2]): 7.2 |
| CC(=O)Oc1ccccc1C(=O)O [ASPIRIN] | – | – | – | – | – | ID50 (Mus musculus [9]): 80.8; inhibition in vivo at 100 mg/kg (Mus musculus [9]): 61.7%; inhibition in vivo at 50 mg/kg (Mus musculus [10]): 38.2%; Time of licking (Mus musculus [11]): 48 s; Time of licking (Mus musculus [12]): 0 s; inhibition in vivo at 200 mg/kg (Mus musculus [13]): 74% |
| CN1CC[C@]23c4c5ccc(O)c4O[C@H]2[C@@H](O)C=C[C@H]3[C@H]1C5 [MORPHINE] | – | – | – | – | – | Time of licking (Mus musculus [14]): 41 s; Time of licking (Mus musculus [15]): 0 s |
